{"source": "paper PMC11284788", "about": "“NN1213 – A Potent, Long-Acting, and Selective Analog of Human Amylin” (Journal of Medicinal Chemistry, 2024)", "key": {"Pharmacokinetics in rats": {"assay": "Pharmacokinetics in rats", "settings": "male, Sprague-Dawley, rat, plasma, sc, 5 nmol/kg", "experimental": "(§1) Blood samples were collected at fixed time points postdose to determine full PK profiles. Plasma samples were analyzed by ELISA. Plasma concentration–time profiles were analyzed by noncompartmental analysis.\n(§2) Pharmacokinetic Evaluation. Rats: Male Sprague-Dawley rats (Taconic, Europe; body weight\n(§3) approximately 400 g) were group-housed under controlled temperature conditions (20 °C ± 2 °C).\n(§4) Blood was collected from the sublingual vein and rats were acclimated to handling on three separate\noccasions prior to blood collection.\n(§5) the tail vein of five rats. Sc injections were performed in the neck of another group of five rats. The\ndosing volume was 2 mL/kg.\n(§6) collected into test tubes containing EDTA for stabilization and kept on ice until centrifugation. Each\n(§7) blood sample was 100 µL. Plasma was separated from whole blood by centrifugation and was stored at\n–20 °C or lower until analysis."}, "cAMY1R [1]": {"tested_on": "cAMY1R", "assay": "Species-specific cAMP assay, cAMY1R", "settings": "for Ratio CTR/AMY1R (canine, functional): ratio of cAMP EC50 values, canine receptors"}, "rAMY1R [2]": {"molecular_target": "T1, rAMY1R (Rattus norvegicus, UniProt P32214+Q9JJ74)", "T1 sequence (P32214 25-516)": "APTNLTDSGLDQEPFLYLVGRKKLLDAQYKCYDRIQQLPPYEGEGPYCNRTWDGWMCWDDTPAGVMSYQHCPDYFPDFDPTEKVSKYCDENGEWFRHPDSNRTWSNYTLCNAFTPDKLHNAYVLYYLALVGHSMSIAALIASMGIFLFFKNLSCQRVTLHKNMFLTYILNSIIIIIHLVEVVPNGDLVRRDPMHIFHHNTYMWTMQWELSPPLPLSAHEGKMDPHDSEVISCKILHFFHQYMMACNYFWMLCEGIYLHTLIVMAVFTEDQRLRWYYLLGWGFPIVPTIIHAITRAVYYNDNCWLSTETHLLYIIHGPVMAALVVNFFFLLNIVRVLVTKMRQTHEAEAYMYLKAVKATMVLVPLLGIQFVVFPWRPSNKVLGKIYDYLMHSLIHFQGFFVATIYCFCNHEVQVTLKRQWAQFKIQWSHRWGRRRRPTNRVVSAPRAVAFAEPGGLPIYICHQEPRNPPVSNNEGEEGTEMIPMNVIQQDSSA", "T1 sequence (Q9JJ74 27-148 partner)": "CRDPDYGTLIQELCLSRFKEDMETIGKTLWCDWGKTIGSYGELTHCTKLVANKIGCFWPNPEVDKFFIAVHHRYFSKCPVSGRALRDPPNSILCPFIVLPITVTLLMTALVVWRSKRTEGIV", "assay": "Whole-cell competition binding, rAMY1R", "set-up": "expressed in transfected cells; host or cells: BHK tk-ts 13 cells, transient, FuGENE 6", "settings": "IC50 for the CTR divided by that of the AMYR, rat receptors"}, "cAMY3R [3]": {"tested_on": "cAMY3R", "assay": "Species-specific cAMP assay, cAMY3R", "settings": "for Ratio CTR/AMY3R (canine, functional): ratio of cAMP EC50 values, canine receptors"}, "in vivo [4]": {"assay": "in vivo", "settings": "female, New Zealand white, rabbit, iv", "experimental": "as §1\n(§8) Rabbits: Female rabbits (New Zealand white, Charles River; 21–23 weeks; 2.5–3.5 kg) were group-\n(§9) housed (10 per cage) in normal day–night rhythm from arrival and had free access to food and water.\n(§10) The rabbits were treated against coccidiosis during their 5-week acclimation period upon arrival. Iv\n(§11) dosing was performed as a bolus injection into an ear vein with a dosing volume of 0.1 mL/kg. The\n(§12) dosing solution was at room temperature before injection. Venous blood sampling was performed\n(§13) directly through puncture of an ear vein using a needle. A full plasma concentration–time profile was\nobtained from each animal.\n(§14) Blood (300 µL) was collected directly into test\n(§15) tubes containing EDTA buffer (Microvette CB 300 K2E). Samples were kept on wet ice until\n(§16) centrifugation (10 min, 4 °C, 3000 rpm). Plasma (100 µL) was transferred immediately to Micronic\n(§17) tubes and kept at –20 °C until analysis.\n(§18) Plasma analysis: Plasma samples were analyzed by a commercially available kit (Millipore, Human\nAmylin ELISA, cat. #EZHA-52-K). […]\n(§19) was applied and the plate was read on a fluorescent reader with an excitation/emission wavelength of\n(§20) samples. The lower limit of quantification (LLOQ) was 100–500 pM."}, "cAMY1R [5]": {"tested_on": "cAMY1R", "assay": "Whole-cell competition binding, cAMY1R", "settings": "IC50 for the CTR divided by that of the AMYR, canine receptors"}, "mAMY3R": {"molecular_target": "T2, mAMY3R (Mus musculus, UniProt Q60755+Q9WUP1)", "T2 sequence (Q60755 42-496 isoform Q60755-2 limits assumed)": "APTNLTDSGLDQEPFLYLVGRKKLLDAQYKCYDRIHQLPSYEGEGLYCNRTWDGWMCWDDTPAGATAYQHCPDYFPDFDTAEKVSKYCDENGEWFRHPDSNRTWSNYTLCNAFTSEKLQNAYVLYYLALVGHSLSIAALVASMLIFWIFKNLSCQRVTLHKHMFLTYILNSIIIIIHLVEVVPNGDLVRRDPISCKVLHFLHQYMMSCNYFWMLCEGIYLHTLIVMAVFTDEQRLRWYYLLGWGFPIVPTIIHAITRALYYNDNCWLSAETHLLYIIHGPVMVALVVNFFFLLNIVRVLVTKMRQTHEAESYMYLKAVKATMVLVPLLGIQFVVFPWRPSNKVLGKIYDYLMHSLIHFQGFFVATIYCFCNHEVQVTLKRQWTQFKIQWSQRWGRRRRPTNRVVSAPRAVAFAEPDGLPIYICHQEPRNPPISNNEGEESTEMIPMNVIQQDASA", "T2 sequence (Q9WUP1 24-147 partner limits assumed)": "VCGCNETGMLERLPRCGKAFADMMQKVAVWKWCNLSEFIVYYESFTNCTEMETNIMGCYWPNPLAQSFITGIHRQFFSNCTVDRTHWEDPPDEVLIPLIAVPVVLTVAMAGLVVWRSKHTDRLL", "assay": "Mouse receptor cAMP HTRF assay (BacMam, HeLa), mAMY3R", "settings": "ratio of cAMP EC50 values, mouse receptors", "experimental": "Mouse Receptors (Functional Assay Only). Cell culture: HeLa cells were cultured in an incubator at 37 °C and 5% CO2, in cell culture medium (DMEM with 10% [v/v] FBS, 1% [w/w] penicillin/streptomycin).\nCell seeding in T75 flasks (day 1): The day before transfection of the cells, 2 x 10^6 HeLa cells were seeded in three T75 flasks and incubated overnight. Media was removed from 1–2 T175 flasks and cells were washed once with Dulbecco PBS (with Mg2+ and Ca2+). Cells were detached with 2 mL TrypLE Express for 5 min in an incubator. Five mL pre-warmed media was added to each T75 flask and mixed with the cell suspension. Cells were counted in 100 µL of this suspension. The cell suspension was centrifuged at 1200 rpm for 4 min and the supernatant was discarded. The cells were re-suspended in media and 2 x 10^6 cells were seeded in approximately 15 mL in each of the three T75 flasks. The flasks were incubated overnight.\nwith 20 µL poly-d-lysin/well for 2–3 h at 37 °C. The plates were washed twice with PBS and allowed\nTransfection of cells (day 2): Reagents were acclimated to room temperature for 30 min. Media was\nremoved from the T75 flasks, and cells were washed once with PBS (with Mg2+ and Ca2+). Cells were\nSeeding of transfected cells in assay plates (day 2): Following the 3-h transduction, T75 flasks were\nwashed once with PBS (with Mg2+ and Ca2+). […]\nmL pre-warmed media and counted."}, "hAMY3R [6]": {"molecular_target": "T3, hAMY3R (Homo sapiens, UniProt O60896+P30988)", "T3 sequence (P30988 25-474)": "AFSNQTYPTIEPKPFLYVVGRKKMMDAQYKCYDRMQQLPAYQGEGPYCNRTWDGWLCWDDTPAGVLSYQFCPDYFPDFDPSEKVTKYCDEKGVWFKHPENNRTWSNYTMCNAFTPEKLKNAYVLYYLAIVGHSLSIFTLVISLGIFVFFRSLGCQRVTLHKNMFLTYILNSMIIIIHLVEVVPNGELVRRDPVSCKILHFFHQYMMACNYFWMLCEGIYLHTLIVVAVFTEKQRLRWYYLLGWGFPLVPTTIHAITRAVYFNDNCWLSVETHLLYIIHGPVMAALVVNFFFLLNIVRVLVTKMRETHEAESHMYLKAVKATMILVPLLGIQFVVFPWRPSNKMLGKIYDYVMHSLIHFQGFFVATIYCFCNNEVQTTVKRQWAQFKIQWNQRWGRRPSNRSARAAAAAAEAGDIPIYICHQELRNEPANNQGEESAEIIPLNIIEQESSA", "T3 sequence (O60896 24-148 partner)": "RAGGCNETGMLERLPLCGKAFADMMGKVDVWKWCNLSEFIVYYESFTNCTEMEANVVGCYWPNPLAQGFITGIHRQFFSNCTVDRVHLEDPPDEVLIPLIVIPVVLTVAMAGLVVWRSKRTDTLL", "assay": "Whole-cell competition binding, hAMY3R", "set-up": "expressed in transfected cells; host or cells: BHK tk-ts 13, transient co-transfection; whole cells for the species-specific assays", "settings": "IC50 for the CTR divided by that of the AMYR, human receptors"}, "cAMY3R [7]": {"tested_on": "cAMY3R", "assay": "Whole-cell competition binding, cAMY3R", "settings": "IC50 for the CTR divided by that of the AMYR, canine receptors"}, "cCTR": {"tested_on": "cCTR", "assay": "Species-specific cAMP assay, cCTR", "settings": "cAMP HTRF, transiently transfected BHK cells, 30 min room temperature, five experiments"}, "rAMY1R [8]": {"molecular_target": "T1, rAMY1R", "assay": "Species-specific cAMP assay, rAMY1R", "settings": "ratio of cAMP EC50 values, rat receptors"}, "[9]": {"settings": "in vivo, iv", "experimental": "as §1, §8, §9, §10, §11, §12, §13\nobtained from each animal.\nas §14, §15, §16, §17, §18\nAmylin ELISA, cat. #EZHA-52-K). […]\nas §19, §20"}, "hAMY3R [10]": {"molecular_target": "T3, hAMY3R", "assay": "Species-specific cAMP assay, hAMY3R", "settings": "ratio of cAMP EC50 values, human receptors"}, "in vivo [11]": {"assay": "in vivo", "settings": "male, Sprague-Dawley, rat, iv", "experimental": "as §1, §2, §3, §4\noccasions prior to blood collection.\nas §5\ndosing volume was 2 mL/kg.\nas §6, §7\n–20 °C or lower until analysis."}, "[12]": {"settings": "cAMP HTRF, transiently transfected BHK cells, 30 min room temperature, five experiments"}}, "data": [{"smiles": "CC[C@H](C)[C@H](NC(=O)[C@H](C)NC(=O)CNC(=O)[C@H](Cc1ccccc1)NC(=O)[C@H](CC(N)=O)NC(=O)[C@@H]1CCCN1C(=O)[C@H](CO)NC(=O)[C@H](CO)NC(=O)[C@H](Cc1c[nH]cn1)NC(=O)[C@H](CCCNC(=N)N)NC(=O)[C@H](CC(C)C)NC(=O)[C@H](Cc1ccccc1)NC(=O)[C@H](CC(=O)O)NC(=O)[C@H](C)NC(=O)[C@H](CC(C)C)NC(=O)[C@H](CCCNC(=N)N)NC(=O)[C@H](CCC(N)=O)NC(=O)[C@@H](NC(=O)[C@H](C)NC(=O)[C@@H]1CSSC[C@H](NC(=O)[C@@H](N)CCCCNC(=O)CC[C@H](NC(=O)CC[C@H](NC(=O)CCCCCCCCCCCCCCCCCCC(=O)O)C(=O)O)C(=O)O)C(=O)N[C@@H](CC(N)=O)C(=O)N[C@@H]([C@@H](C)O)C(=O)N[C@@H](C)C(=O)N[C@@H]([C@@H](C)O)C(=O)N1)[C@@H](C)O)C(=O)N1CCC[C@H]1C(=O)N[C@@H](CO)C(=O)N[C@@H](CO)C(=O)N[C@H](C(=O)N[C@@H](CC(N)=O)C(=O)N[C@H](C(=O)NCC(=O)N[C@@H](CO)C(=O)N[C@@H](CCCNC(=N)N)C(=O)N[C@H](C(=O)N[C@@H](Cc1ccc(O)cc1)C(N)=O)[C@@H](C)O)C(C)C)[C@@H](C)O", "note": "[NN1213]", "values": [{"measurement": "bioavailability", "setting": "Pharmacokinetics in rats", "result": "~40", "unit": "%"}, {"measurement": "cAMY1R pEC50", "setting": "cAMY1R [1]; [12]", "result": 9.87}, {"measurement": "Ratio CTR/AMY1R (canine, functional)", "setting": "cAMY1R [1]", "result": 3}, {"measurement": "Ratio CTR/AMY1R (canine, functional)", "setting": "cAMY1R [1]; listed as NN1213/peptide 21", "result": 2}, {"measurement": "Ratio CTR/AMY1R (rat, binding)", "setting": "rAMY1R [2]", "result": 190}, {"measurement": "cAMY3R pEC50", "setting": "cAMY3R [3]; [12]", "result": 9.74}, {"measurement": "Ratio CTR/AMY3R (canine, functional)", "setting": "cAMY3R [3]", "result": 2}, {"measurement": "Ratio CTR/AMY3R (canine, functional)", "setting": "cAMY3R [3]; listed as NN1213/peptide 21", "result": 3}, {"measurement": "half-life", "setting": "in vivo [4]", "result": 49, "unit": "h"}, {"measurement": "Ratio CTR/AMY1R (canine, binding)", "setting": "cAMY1R [5]", "result": 73}, {"measurement": "Ratio CTR/AMY3R (mouse, functional)", "setting": "mAMY3R", "result": 24}, {"measurement": "Ratio CTR/AMY3R (human, binding)", "setting": "hAMY3R [6]", "result": 67}, {"measurement": "Ratio CTR/AMY3R (canine, binding)", "setting": "cAMY3R [7]", "result": 40}, {"measurement": "cCTR pEC50", "setting": "cCTR", "result": 9.39}, {"measurement": "Ratio CTR/AMY1R (rat, functional)", "setting": "rAMY1R [8]", "result": 336}, {"measurement": "terminal plasma half-life (T1/2), rabbit", "setting": "[9]", "result": "approximately 50 h"}, {"measurement": "Ratio CTR/AMY3R (human, functional)", "setting": "hAMY3R [10]", "result": 51}, {"measurement": "half-life", "setting": "in vivo [11]", "result": 24, "unit": "h"}]}]}
